Results on four compounds are retold here after patent publication US9585861B1, “Method for treating a cancer with a mixed ligand gold(III) complexes as anti-cancer agents” (KING FAHD UNIVERSITY OF PETROLEUM AND MINERALS, priority 2015, dated 2017).

Read-outs that look alike come from different tables or passages of the source.

Series [1] concerns human gastric SGC7901 cancer cells. Briefly: MTT assay, in vitro cytotoxicity / cell growth inhibition on SGC7901 cells. Format: cell-based. Particulars: for time dependent antiproliferative effect: 10 μM, 24 h and 72 h; for IC50: 72 h exposure, MTT. How it is done:
(§1) Human gastric SGC7901 cancer and prostate PC3 cancer cell lines were provided by American Type Culture Collection (ATCC). Cells were cultured in Dulbecco's Modified Eagle Medium (DMEM) supplemented with 10% fetal calf serum (FCS), penicillin (100 kU L^−1) and streptomycin (0.1 g L^−1) at 37° C. in a 5% CO2-95% air atmosphere. MTT (3-(4,5-Dimethylthiazol-2-yl)-2,5-diphenyltetrazolium bromide, a yellow tetrazole) was purchased from Sigma Chemical Co, St. Louis, Mo., USA.
(§2) An MTT assay was used to obtain the number of living cells in the sample. Human gastric cancer SGC7901 and prostate cancer PC3 cells were seeded on 96-well plates at a predetermined optimal cell density, i.e. ca 6000 cells/100 μL per well in 96-well plates, to ensure exponential growth in the duration of the assay. After 24 h pre-incubation, the growth medium was replaced with the experimental medium containing the appropriate drug, using one of 1,2-diaminocyclohexane(1,3-propylenediamine)gold(III) chloride compounds 1, 2 and 3 or a control using water. Six duplicate wells were set up for each sample, and cells untreated with drug served as a control. In one set of culture plates, human gastric cancer SGC7901 and human prostate PC3 cells were treated with 10 μM compounds 1, 2 and 3 as the drug and the control (water) for 24, 48 and 72 h. In other sets, the compounds 1, 2 and 3 with different concentration, i.e. 10, 20 and 30 μM, were employed to determine the growth inhibitory effect for both PC3 and SGC7901 cells separately. After incubation, 10 μL MTT (6 g/L, Sigma) was added to each well and the incubation was continued for 4 h at 37° C. After removal of the medium, MTT stabilization solution [dimethylsulfoxide (DMSO):ethanol=1:1] was added to each well, and shaken for 10 min until all crystals were dissolved. Then, the optical density was detected in a micro plate reader at 550 nm wavelength using an Enzyme-Linked Immuno-Sorbent Assay (ELISA) reader. After being treated with the 1,2-diaminocyclohexane(1,3-propylenediamine)gold(III) chloride compounds 1, 2 and 3, the cell viability was examined by MTT assay. Each assay was performed in triplicate. […] These cells were treated with various concentrations of compounds 1, 2 and 3 for 24-72 h.
(§3) Human gastric SGC7901 cells and prostate PC3 cells were incubated with these compounds at fixed concentrations or with water as a control to assess the inhibitory effect on cell growth. […] The cell survival versus drug concentration is plotted. Cytotoxicity was evaluated in vitro with reference to the IC50 value. The half maximal inhibitory concentration (IC50) is a measure of the effectiveness of a compound to inhibit biological or biochemical functions. According to the FDA, IC50 represents the concentration of a drug/compound/complex that is required for 50% inhibition in vitro. It is evaluated from the survival curves as the concentration needed for a 50% reduction of survival. IC50 values are expressed in μM.
(§4) The in vitro cytotoxic effect of mixed ligand gold(III) diamine complexes against androgen-resistant prostate PC3 and human gastric SGC7901 cancer cells were studied using MTT assay. […] For that reason, we used different concentrations and a 3-day exposure protocol to determine the IC50 values for all three complexes. The in vitro cytotoxicity in terms of IC50 values of cisplatin for PC3 and SGC7901 cells was included for a comparison.

The test system of series [2] is human prostate PC3 cancer cells. Put plainly: MTT assay, in vitro cytotoxicity / cell growth inhibition on PC3 cells. Type of series: cell-based. Particulars: for time dependent antiproliferative effect: 10 μM, 24 h and 72 h; for IC50: 72 h exposure, MTT. As for the experimental part: as §1, §2, §3, §4
(Tetrazolium assays rely on reduction of a dye to a coloured formazan, in cell work by metabolically active cells.)

A short description of series [3]: Cyclic voltammetry in reference phosphate buffer. Type of series: physicochemical. Particulars: 1.0 mM, phosphate buffer pH 7.4, platinum electrode, 50 mV/s, room temperature. As for the experimental part:
The electrochemical experiments performed at room temperature using a potentiostat (SP-300, BioLogic Science Instruments) controlled by EC-Lab v10.34 software package. The electrochemical experiments were performed at room temperature. All the measurements were performed on solutions deaerated by bubbling ultra-pure nitrogen for 15 min. The values of potential here reported were measured against a saturated calomel electrode (SCE). The cyclic voltammetry of the compounds 1, 2 and 3 were measured at scan rate of 50 mV/s on a reference buffer (40 mM phosphate, 4 mM NaCl, pH 7.4) using platinum as working electrode and graphite as a counter electrode with a concentration of 1.0 mM at room temperature. Ferrocene was used as pseudo reference to calibrate the working electrode. The couple Fe^III/II formal potential of ferrocene occur at E°′=+0.44 V (vs SCE) in 0.1 M Bu4NPF6 solution in acetonitrile which is similar to the report value under the same experimental condition [Hans J, Beckmann A, Krüger H J (1999) Eur. J. Inorg. Chem. 163-172—incorporated herein by reference in its entirety]. Conversion to values vs NHE was obtained upon adding +0.24 V to the corresponding SCE values.
The electrochemical behavior of compounds 1, 2 and 3 was investigated in a physiological environment through cyclic voltammetry (CV). […] Gold(III) complexes 1, 2 and 3 show one irreversible reduction process in which the controlled potential coulometry involves three electrons per mole. The occurrence of Au(III)/Au(O) reduction is visually indicated by the appearance of a thin gold layer deposited on the platinum electrode surface after exhaustive electrolysis (Ew, −0.7 V).

A short description of series [4]: NMR stability in D2O and mixed DMSO-d6/D2O. Type of series: physicochemical. As to conditions: DMSO-d6/D2O (v/v 2/1), room temperature, after 7 days. As for the experimental part: Compounds 1, 2 and 3 were tested for their stability in water as well as mixed solvents of DMSO/water (2/1 v/v ratio) solution by ^13C and ^1H NMR. […] The hydroscopic nature of DMSO could unfortunately lead to stability issue [Ellson R, Stearns R, Mutz M, Brown C, Browning B, Harris D, Qureshi S. Shieh J, Wold D (2005) Comb. Chem. High Throughput Screen, 8:489-498—incorporated herein by reference in its entirety]. To investigate the structural stability of the compounds, NMR spectra of the compounds dissolved in D2O and mixed DMSO-d6/D2O (v/v: 2/1) solvents were obtained on immediate dissolution and latter at 24 h and after three days 72 h at room temperature in mixed DMSO-d6/D2O and at 37° C. in D2O . A minimum of 30 mg/mL of representative gold(III) compounds 1, 2 and 3 were subjected to ^1H and ^13C NMR spectra analysis followed by dissolution in D2O and DMSO-d6/D2O (v/v: 2/1, 1 mL). The duplicate samples were dissolved and immediately stored at room temperature and 37° C., respectively, and followed by determination of stability through NMR measurements for compounds 1, 2 and 3 overtime periods of 24 h and 72 h.
The NMR spectra of the complexes were obtained upon immediate dissolution to serve as reference spectra and later at 24 h and after 7 days at 37° C. in D2O and at room temperature in mixed DMSO-d6/D2O in order to determine their stability. […]

Setting [5] is: read-out: IC50 (concentration of sample required to reduce the cell growth of tumor cell line by 50%).
The mark [6] stands for this setting: listed as complex 1, read-out: IC50 (concentration of sample required to reduce the cell growth of tumor cell line by 50%).
[7] abbreviates: listed as complex 3, read-out: IC50 (concentration of sample required to reduce the cell growth of tumor cell line by 50%).

In the case of `NC1CCCCC1N.NCCCN.[Au+3].[Cl-].[Cl-].[Cl-]` (racemic) [Complex 2, trans-(±)-1,2-diaminocyclohexane(1,3-propylenediamine)gold(III) chloride], the “time dependent antiproliferative effect” value in series [1] and in series [2] was “complex 3>complex 2>complex 1” throughout. Besides, the results for the IC50 in series [1] (setting [5]) and in series [2] (setting [5]) were 10.9 µM and 10.2 µM, respectively. Moreover, the “Peak potential Ep vs. NHE for reduction” value in series [3] came out at 0.25 V.
`N.N.[Cl][Pt][Cl]` [Cisplatin, reference compound]: the IC50 turned out to be 7.3 µM in series [1] (setting [5]) and 1.1 µM in series [2] (setting [5]).
As for `NC1CCCCC1N.NCCCN.[Au+3].[Cl-].[Cl-].[Cl-]` (stereo not drawn) [Complex 1, cis-1,2-diaminocyclohexane(1,3-propylenediamine)gold(III) chloride], the “time dependent antiproliferative effect” value in series [1] (listed as complex 1) and in series [2] (listed as complex 1) was “complex 3>complex 2>complex 1” in each case. The IC50 in series [1] (setting [6]) is 10.8 µM; in series [2] (setting [6]), 9.5 µM. In series [2] (10 μM and 20 μM, 24 h), the “concentration dependent cell growth inhibition” value was “much better cell inhibition against PC3 cancer cell than complexes 3 and 2”. For the same compound, the “Peak potential Ep vs. NHE for reduction” value in series [3] (listed as 1) was found to be 0.34 V.
Regarding `NC1CCCCC1N.NCCCN.[Au+3].[Cl-].[Cl-].[Cl-]` [Complex 3, (S,S)-(+)-1,2-diaminocyclohexane(1,3-propylenediamine)gold(III) chloride], the “time dependent antiproliferative effect” value in series [1] was “better cell inhibition against both PC3 and SGC7901 cell lines than complexes 1 and 2”; in series [1] (listed as complex 3) it was “complex 3>complex 2>complex 1”; in series [2] it was “better cell inhibition against both PC3 and SGC7901 cell lines than complexes 1 and 2”; in series [2] (listed as complex 3), “complex 3>complex 2>complex 1”. Besides, the IC50 in series [1] (setting [7]) was 10.1 µM; in series [2] (setting [7]), 9.1 µM. In addition, the “dissociation of 1,3-propylenediamine” value in series [4] is given as “approximately 50%”. Further, the “Peak potential Ep vs. NHE for reduction” value in series [3] (listed as 3) is recorded as 0.24 V.
